Article PMC3836566 (Chemical research in toxicology, 2013)
“Also recorded” adds a separate entry of the source.

Legend:
[1] = target: thyroid hormone sulfotransferase activity in pooled human liver cytosol; experiment: Inhibition of 3,3′-T2 sulfotransferase activity; details: for IC50: read-out: IC50 (nM) (95% CI) for the inhibition of 3,3′-T2S formation, 1 μM 3,3′-T2, 0.25 mg protein/ml pooled human liver cytosol, 50 μM PAPS, 30 min, 37°C; for inhibition of 3,3′-T2 sulfation (result in words): range of concentrations tested 10–1000 nM
[2] = system: thyroid hormone sulfotransferase activity in pooled human liver cytosol; experiment: Mechanism of 3,3′-T2 sulfotransferase inhibition; assay type: biochemical; details: 3,3′-T2 0–5000 nM with varying 4-OH BDE 90; Vmax lower, apparent Km unchanged
SULT1A3 = details: read-out: Km of 3,3′-T2 for SULT1A3; cited from earlier work
[3] = system: thyroid hormone sulfotransferase activity; experiment: 3,3′-T2 sulfation kinetics in pooled human liver cytosol; assay type: biochemical; details: human, pooled human liver cytosol
[4] = system: thyroid hormone sulfotransferase activity in pooled human liver cytosol; experiment: as above; assay type: biochemical
SULT1A1 = details: read-out: Km of 3,3′-T2 for SULT1A1; cited from earlier work
SULT2A1 = details: read-out: Km of 3,3′-T2 for SULT2A1; cited from earlier work
SULT1E1 = details: read-out: Km of 3,3′-T2 for SULT1E1; cited from earlier work

| Structure (SMILES) | IC50 [1] [nM] | other results |
| --- | --- | --- |
| Oc1cc(Oc2cc(Br)c(Br)cc2Br)c(Br)cc1Br [5′-OH BDE 99, 5′-OH 2,2′,4,4′,5-pentaBDE] | 520 | – |
| Oc1c(Br)cc(Oc2ccc(Br)cc2Br)c(Br)c1Br [4-OH BDE 90, 4-OH 2,2′,3,4′,5-pentaBDE] | 24 | inhibition mechanism [2]: non-competitive |
| Oc1cc(Br)cc(Br)c1Oc1cc(Br)c(Br)cc1Br [6′-OH BDE 99, 6′-OH 2,2′,4,4′,5-pentaBDE] | 310 | – |
| Oc1c(F)cc(F)cc1F [2,4,6-TFP, 2,4,6-trifluorophenol] | 4.6 | – |
| Oc1cc(Br)c(Oc2cc(Br)c(Br)cc2Br)cc1Br [4′-OH BDE 101, 4′-OH 2,2′,4,5, 5′-pentaBDE] | 640 | – |
| N[C@@H](Cc1ccc(Oc2ccc(O)c(I)c2)c(I)c1)C(=O)O [3,3′-T2, 3,3′-diiodothyronine] | – | Km (SULT1A3): 31 to 35 µM; microsomal CLint [3]: 145 µL/min/mg; 3,3′-T2S formation rate under standard conditions ([4]; 1 μM 3,3′-T2, 30 min incubation, 0.25 mg protein/ml): 70–80 pmol/min.mg protein; Vmax for 3,3′-T2 sulfate formation ([4]; pooled human liver cytosol 0.25 mg protein/ml, 30 min): 153 ± 6.6 pmol/min.mg protein; Km ([4]; read-out: apparent Km for the 3,3′-T2 sulfation reaction, pooled human liver cytosol 0.25 mg protein/ml, 30 min): 1.07 ± 0.12 µM; Km (SULT1A1): 0.12 µM; Km (SULT2A1): 3 µM; Km (SULT1E1): 3.5 to 9.7 µM |
| Oc1c(Br)cc(Br)c(Oc2cc(Br)c(Br)cc2Br)c1Br [3′-OH BDE 154, 3-OH 2,2′,4,4′,5,6′-hexaBDE] | 80 | – |
| CC(C)(c1cc(Br)c(O)c(Br)c1)c1cc(Br)c(O)c(Br)c1 [TBBPA, tetrabromobisphenol A] | 460 | – |
| Oc1c(Br)ccc(Oc2ccc(Br)cc2Br)c1Br [3-OH BDE 47, 3-OH 2,2′,4,4′-tetraBDE] | 60 | – |
| Oc1c(I)cc(I)cc1I [2,4,6-TIP, 2,4,6-triiodophenol] | 140 | – |
| Oc1ccc(C(c2ccc(O)cc2)(C(F)(F)F)C(F)(F)F)cc1 [BPA-AF, 4,4′-(hexafluoroisopropylidene)diphenol] | 8590 | – |
| CC(C)(c1cc(Cl)c(O)c(Cl)c1)c1cc(Cl)c(O)c(Cl)c1 [TCBPA, 3,3′,5,5′-tetrachlorobisphenol A] | 340 | – |
| Oc1ccccc1Oc1ccc(Br)cc1 [2′-OH BDE 3, 2′-OH 4-monoBDE] | 500 | – |
| Oc1cc(Br)cc(Br)c1Oc1ccc(Br)cc1Br [6-OH BDE 47, 6-OH 2,2′,4,4′-tetraBDE] | 130 | – |
| Oc1cccc(Oc2ccc(Br)cc2Br)c1 [3′-OH BDE 7, 3′-OH 2,4-diBDE] | 410 | – |
| CC(C)(c1cc(I)c(O)c(I)c1)c1cc(I)c(O)c(I)c1 [TIBPA, 3,3′,5,5′-tetraiodobisphenol A] | 13200 | – |
| Oc1c(Br)cc(Br)cc1Br [2,4,6-TBP, 2,4,6-tribromophenol] | 8.3 | – |
| Oc1cc(Oc2ccc(Br)cc2Br)c(Br)cc1Br [5-OH BDE 47, 5-OH 2,2′,4,4′-tetraBDE] | 400 | – |
| Oc1cc(Oc2ccc(Br)cc2Br)ccc1Br [3′-OH BDE 28, 3′-OH 2,4,4′-triBDE] | 190 | – |
| Brc1ccc(Oc2ccc(Br)cc2Br)c(Br)c1 [BDE 47, 2,2′,4,4′-tetrabromodiphenyl ether] | – | inhibition of 3,3′-T2 sulfation (result in words) [1]: did not inhibit 3,3′-T2 sulfation; also recorded: did not show inhibition; inhibition of 3,3′-T2 sulfation (result in words) ([1]; listed as BDE-47): did not show sulfotransferase inhibition |
| Oc1cc(Br)c(Oc2ccc(Br)cc2Br)cc1Br [4′-OH BDE 49, 4′-OH 2,2′,4,5′-tetraBDE] | 650 | – |
| Oc1c(Br)c(Br)c(Oc2c(Br)cc(Br)c(Br)c2Br)c(Br)c1Br [4′-OH BDE 201, 4′-OH 2,2′,3,3′,4,5′,6,6′-octaBDE] | 510 | – |
| Oc1cc(Cl)ccc1Oc1ccc(Cl)cc1Cl [Triclosan, triclosan] | 1410 | fold less potent than 3′-OH BDE 28 ([1]; 3,3′-T2 sulfotransferase inhibition potency): approximately 7 fold |
